# Where two headings read alike, the source gives them in different places.
# Assays:
# WH1 human fibroblasts = assay: MTT cell viability assay, WH1 fibroblasts; assay type: cell-based; conditions: Fibroblast, 72 h treatment
# Protocol: (§1) The cell lines DU145 (HTB-81, human prostate carcinoma), PC3 (CRL-1435, human prostate adenocarcinoma), MCF7 (HTB-22, human breast adenocarcinoma), MDA-MB231 (HTB-26, human breast adenocarcinoma), and HCT116 (CCL-247, human colorectal carcinoma) were obtained from ATCC (American Type Culture Collection, Manassas, VA, USA); WH1 human fibroblasts were kindly provided by Dr. Guven.[51] All the cells were maintained under standard culture conditions (37 °C; 5% CO2) in the RMPI1640 medium (PC3, MCF7, and MDA-MB231 cells), while DU145 and HCT116 cells were in the DMEM and Iscove’s medium (WH1 cells) supplemented with 10% fetal calf serum, 1% glutamine, and 1% antibiotics mixture; for HCT116 and DU145 cells, 1% sodium pyruvate and 1% non-essential amino acids were also added to the culture medium.
# (§2) The 3-(4,5-dimethylthiazol-2-yl)-2,5-diphenyltetrazolium bromide (MTT) assay was performed on all the cell lines tested as previously described[52] with minor modifications. Briefly, according to the growth profiles previously defined for each cell line, adequate numbers of cells were plated in each well of a 96-well plate in 0.1 mL of complete culture medium. Cells were allowed to attach for 24 h before the treatment at 37 °C for 72 h with the compounds at concentrations ranging between 0.1 and 75 μM, bringing the final volume to 0.2 mL/well. Each experiment included eight replications per concentration tested; control samples were run with 0.2% DMSO. At the end of the incubation period, MTT (0.05 mL of a 2 mg/mL stock solution in PBS) was added to each well for 3 h at 37 °C. Cell supernatants were then carefully removed, the blue formazan crystals formed through MTT reduction by metabolically active cells were dissolved in 0.120 mL of DMSO, and the corresponding optical densities were measured at 570 nm using a Universal Microplate Reader EL800 (Bio-Tek, Winooski, VT).
# (§3) IC50 values were estimated from the resulting concentration–response curves by nonlinear regression analysis using GraphPad Prism software, v. 5.0 (GraphPad, San Diego, CA, USA). Differences between IC50 values were evaluated statistically by analysis of variance with a Bonferroni post-test for multiple comparisons.
# MCF7 cells = assay: MTT cell viability assay, MCF7; assay type: cell-based; conditions: Homo sapiens, 72 h treatment, MTT, read-out: IC50 MCF7
# Protocol: as §1, §2, §3
# MDA-MB231 cells = assay: MTT cell viability assay, MDA-MB231; assay type: cell-based; conditions: Homo sapiens, MDA-MB-231
# Protocol: as §1, §2, §3
# PC3 cells [1] = assay: MTT cell viability assay, PC3; assay type: cell-based; conditions: Homo sapiens, PC-3
# Protocol: as §1, §2, §3
# HBL100 cells = assay: MTT cell viability assay, non-tumorigenic HBL100; assay type: cell-based; conditions: Homo sapiens, HBL-100, 72 h treatment
# Protocol: as §2, §3
# MCF7/ADR cells = assay: MTT cell viability assay, DOX-resistant MCF7/ADR; assay type: cell-based, human; conditions: for IC50: Homo sapiens, NCI/ADR-RES, 72 h treatment, MTT; for R.I. (resistance index): MCF7/ADR vs MCF7
# Protocol: as §2, §3
# DU145 cells [2] = assay: MTT cell viability assay, DU145; assay type: cell-based; conditions: Homo sapiens, DU-145
# Protocol: as §1, §2, §3
# HCT116 cells = assay: MTT cell viability assay, HCT116; assay type: cell-based; conditions: Homo sapiens, HCT-116
# Protocol: as §1, §2, §3
# P. aeruginosa PAO1 [3] = assay: Minimum inhibitory concentration, broth dilution; assay type: cell-based; conditions: Pseudomonas aeruginosa; 24 h incubation at 37 °C, strain PAO1
# Protocol: P. aeruginosa PAO1 was chosen as a model microorganism[53] and was grown overnight in a Luria Bertani (LB) medium at 37 °C on an orbital shaker at 200 rpm. Minimum inhibitory concentrations (MICs) of quinolone and quinolone derivatives were determined against P. aeruginosa PAO1 by a broth dilution method. Overnight cultures were diluted 100-fold to give a cellular concentration of 10^7 CFU/mL. […] The assays were performed at least three times.
# P. aeruginosa PAO1 [4] = assay: Antimicrobial photo-inactivation test, P. aeruginosa; assay type: cell-based, Pseudomonas aeruginosa; conditions: 10 μM, 10 min dark incubation, 405 ± 10 nm, 20 J/cm^2
# Protocol: (§4) Upon the overnight growth of P. aeruginosa PAO1 and S. aureus ATCC6538P (methicillin susceptible S. aureus, MSSA), cultures were diluted in phosphate buffer (PBS–KH2PO4/K2HPO4, 10 mM, pH 7.4) to reach a concentration of ∼10^6 CFU/mL. Compound 7c was added to a cell suspension at a final concentration of 10 μM. Cells were incubated in the dark for 10 min and then irradiated under light at […] (20 J/cm^2) or incubated in the dark as a control. Soon after irradiation, the bacterial concentration was evaluated by the viability count technique. Briefly, an aliquot of each sample was 10-fold serially diluted in PBS and a volume of 10 μL of each diluted and undiluted sample was inoculated on LB agar. After overnight incubation at 37 °C, the corresponding cellular concentration was calculated and expressed as CFU/mL.
# PC3 cells [5] = assay: MTT assay with 1 h irradiation, PC3; assay type: cell-based, human; conditions: 24 h treatment, 1 h white or blue light, 48 h drug-free medium
# Protocol: (§5) To evaluate the contribution of NO release on cell viability, the MTT assay was performed on DU145 and PC3 cells following treatment with 7b and 7c with 1 h irradiation and 48 h incubation in a drug-free medium.
# as §3
# S. aureus ATCC 6538P = assay: Antimicrobial photo-inactivation test, S. aureus; assay type: cell-based, Staphylococcus aureus; conditions: 10 μM, 10 min dark incubation, blue light 20 J/cm^2
# Protocol: as §4
# DU145 cells [6] = assay: MTT assay with 1 h irradiation, DU145; assay type: cell-based, human; conditions: 24 h treatment, 1 h white or blue light, 48 h drug-free medium
# Protocol: as §5, §3
# [7] = 72 h treatment, MTT, read-out: IC50 MDA-MB231
# [8] = 72 h treatment, MTT, read-out: IC50 PC3
# [9] = 72 h treatment, MTT, read-out: IC50 DU145
# [10] = 72 h treatment, MTT, read-out: IC50 HCT116
# [11] = supplement csv, unit inferred, read-out: DU145 IC50
"IC50, irradiated vs kept in the dark, PC3 (PC3 cells [5])",IC50 (DU145 cells [2]; [11]) [µM],"IC50 (HCT116 cells; supplement csv, unit inferred, read-out: HCT116 IC50) [µM]","IC50, irradiated vs kept in the dark, DU145 (DU145 cells [6])","IC50 (MDA-MB231 cells; supplement csv, unit inferred, read-out: MDA-MB231 IC50) [µM]","IC50 (PC3 cells [1]; supplement csv, unit inferred, read-out: PC3 IC50) [µM]",Compound,IC50 (WH1 human fibroblasts) [µM],IC50 (MCF7 cells) [µM],IC50 (MDA-MB231 cells; [7]) [µM],IC50 (PC3 cells [1]; [8]) [µM],IC50 (HBL100 cells) [µM],IC50 (MCF7/ADR cells) [µM],R.I. (resistance index) (MCF7/ADR cells),IC50 (DU145 cells [2]; [9]) [µM],IC50 (HCT116 cells; [10]) [µM],MIC (P. aeruginosa PAO1 [3]) [µg/mL],antimicrobial activity upon blue light irradiation (P. aeruginosa PAO1 [4]),decrease in viable S. aureus with respect to the dark incubated control (S. aureus ATCC 6538P) [log unit]
–,–,–,–,–,–,"CCn1cc(C(=O)O)c(=O)c2cc(F)c(N3CCNCC3)cc21 [Nor, Norfloxacin, reference compound]",14.1 ± 2.1,19.4 ± 0.7,14.9 ± 2.7,33.6 ± 3,12.4 ± 0.8,20.1 ± 1.4,1.0,12 ± 0.6,12.5 ± 2.6,4.16 ± 1.8,–,–
–,–,–,–,–,–,"O=C(O)c1cn(C2CC2)c2cc(N3CCNCC3)c(F)cc2c1=O [Cip, Ciprofloxacin, reference compound]",–,8.85 ± 0.09,19.9 ± 3.6,33.9 ± 2.9,–,19.1 ± 0.5,–,24.9 ± 0.8,31.5 ± 1.5,1.82 ± 1.19,–,–
no differences in IC50 values,1.57 ± 0.59,2.15 ± 0.39,no differences in IC50 values,–,–,"CCn1cc(C(=O)O)c(=O)c2cc(F)c(N3CCN(CCNc4ccc([N+](=O)[O-])c(C(F)(F)F)c4)CC3)cc21 [Compound 7c, 1-Ethyl-6-fluoro-7-(4-(2-((4-nitro-3-(trifluoromethyl)phenyl)amino)ethyl)piperazin-1-yl)-4-oxo-1,4-dihydroquinoline-3-carboxylic Acid]",3.51 ± 0.4,2.27,1.52,2.33,11.1 ± 0.2,18.3 ± 1.4,8.1,–,–,–,did not show any antimicrobial activity,2
no differences in IC50 values,2.42 ± 0.9,–,no differences in IC50 values,2.51 ± 0.43,3.02 ± 0.59,"O=C(O)c1cn(C2CC2)c2cc(N3CCN(CCCNc4ccc([N+](=O)[O-])c(C(F)(F)F)c4)CC3)c(F)cc2c1=O [Compound 7b, 1-Cyclopropyl-6-fluoro-7-(4-(3-((4-nitro-3-(trifluoromethyl)phenyl)amino)propyl)piperazin-1-yl)-4-oxo-1,4-dihydroquinoline-3-carboxylic Acid]",7.05 ± 1.2,5.23 ± 0.82,< 2.5,–,9.19 ± 0.66,23.6 ± 3.6,4.5,< 3,1.83,–,–,–
